Measured values from ChEMBL document CHEMBL1212741, “Comparative efficacies of two antimony regimens to treat Leishmania braziliensis-induced cutaneous Leishmaniasis in rhesus macaques (Macaca mulatta)” (Antimicrob Agents Chemother, 2010).
Calls of active or inactive are those of the source. The calls are words filed in the database; no cut-off is given here.

Tests used:
[1] = Drug level in spleen of Leishmania braziliensis MHOM/BR/2000/CP13396 infected rhesus monkey at 5 mg/kg, im qd for 21 days administered 9 weeks postinfection measured 55 days after compound dosing; assay type: ADME, organism-based, Macaca mulatta; parameters: dose 5 mg/kg, route intramuscular; conditions: in vivo, 1320 h
Rhesus monkey [2] = test: Hepatotoxicity in Leishmania braziliensis MHOM/BR/2000/CP13396 infected rhesus monkey assessed as incidence of hepatocellular acidophilic necrosis at 5 mg/kg, im qd for 21 days administered 9 weeks postinfection; assay type: toxicity, organism-based, Macaca mulatta; parameters: dose 5 mg/kg, route intramuscular; conditions: in vivo
[3] = Drug level in spleen of Leishmania braziliensis MHOM/BR/2000/CP13396 infected rhesus monkey at 20 mg/kg, im qd for 21 days administered 9 weeks postinfection measured 95 days after compound dosing; assay type: ADME, organism-based, Macaca mulatta; parameters: dose 20 mg/kg, route intramuscular; conditions: in vivo, 2280 h
[4] = Drug level in kidney of Leishmania braziliensis MHOM/BR/2000/CP13396 infected rhesus monkey at 5 mg/kg, im qd for 21 days administered 9 weeks postinfection measured 55 days after compound dosing; assay type: ADME, organism-based, Macaca mulatta; parameters: dose 5 mg/kg, route intramuscular; conditions: in vivo, 1320 h
[5] = Drug level in liver of Leishmania braziliensis MHOM/BR/2000/CP13396 infected rhesus monkey at 5 mg/kg, im qd for 21 days administered 9 weeks postinfection measured 95 days after compound dosing; assay type: ADME, organism-based, Macaca mulatta; parameters: dose 5 mg/kg, route intramuscular; conditions: in vivo, 2280 h
[6] = Drug level in kidney of Leishmania braziliensis MHOM/BR/2000/CP13396 infected rhesus monkey at 20 mg/kg, im qd for 21 days administered 9 weeks postinfection measured 95 days after compound dosing; assay type: ADME, organism-based, Macaca mulatta; parameters: dose 20 mg/kg, route intramuscular; conditions: in vivo, 2280 h
[7] = Drug level in spleen of Leishmania braziliensis MHOM/BR/2000/CP13396 infected rhesus monkey at 20 mg/kg, im qd for 21 days administered 9 weeks postinfection measured 55 days after compound dosing; assay type: ADME, organism-based, Macaca mulatta; parameters: dose 20 mg/kg, route intramuscular; conditions: in vivo, 1320 h
Rhesus monkey [8] = test: Toxicity in Leishmania braziliensis MHOM/BR/2000/CP13396 infected rhesus monkey assessed as incidence of toxicity symptoms at 20 mg/kg, im qd for 21 days administered 9 weeks postinfection; assay type: organism-based, Macaca mulatta; parameters: dose 20 mg/kg, route intramuscular; conditions: in vivo
[9] = Drug level in liver of Leishmania braziliensis MHOM/BR/2000/CP13396 infected rhesus monkey at 20 mg/kg, im qd for 21 days administered 9 weeks postinfection measured 95 days after compound dosing; assay type: ADME, organism-based, Macaca mulatta; parameters: dose 20 mg/kg, route intramuscular; conditions: in vivo, 2280 h
Rhesus monkey [10] = test: Toxicity in Leishmania braziliensis MHOM/BR/2000/CP13396 infected rhesus monkey assessed as incidence of toxicity symptoms at 5 mg/kg, im qd for 21 days administered 9 weeks postinfection; assay type: organism-based, Macaca mulatta; parameters: dose 5 mg/kg, route intramuscular; conditions: in vivo
[11] = Drug level in spleen of Leishmania braziliensis MHOM/BR/2000/CP13396 infected rhesus monkey at 5 mg/kg, im qd for 21 days administered 9 weeks postinfection measured 95 days after compound dosing; assay type: ADME, organism-based, Macaca mulatta; parameters: dose 5 mg/kg, route intramuscular; conditions: in vivo, 2280 h
[12] = Drug level in kidney of Leishmania braziliensis MHOM/BR/2000/CP13396 infected rhesus monkey at 5 mg/kg, im qd for 21 days administered 9 weeks postinfection measured 95 days after compound dosing; assay type: ADME, organism-based, Macaca mulatta; parameters: dose 5 mg/kg, route intramuscular; conditions: in vivo, 2280 h
[13] = Drug level in liver of Leishmania braziliensis MHOM/BR/2000/CP13396 infected rhesus monkey at 20 mg/kg, im qd for 21 days administered 9 weeks postinfection measured 55 days after compound dosing; assay type: ADME, organism-based, Macaca mulatta; parameters: dose 20 mg/kg, route intramuscular; conditions: in vivo, 1320 h
[14] = Drug level in kidney of Leishmania braziliensis MHOM/BR/2000/CP13396 infected rhesus monkey at 20 mg/kg, im qd for 21 days administered 9 weeks postinfection measured 55 days after compound dosing; assay type: ADME, organism-based, Macaca mulatta; parameters: dose 20 mg/kg, route intramuscular; conditions: in vivo, 1320 h
Rhesus monkey [15] = test: Hepatotoxicity in Leishmania braziliensis MHOM/BR/2000/CP13396 infected rhesus monkey assessed as incidence of hepatocellular acidophilic necrosis at 20 mg/kg, im qd for 21 days administered 9 weeks postinfection; assay type: toxicity, organism-based, Macaca mulatta; parameters: dose 20 mg/kg, route intramuscular; conditions: in vivo
[16] = Drug level in liver of Leishmania braziliensis MHOM/BR/2000/CP13396 infected rhesus monkey at 5 mg/kg, im qd for 21 days administered 9 weeks postinfection measured 55 days after compound dosing; assay type: ADME, organism-based, Macaca mulatta; parameters: dose 5 mg/kg, route intramuscular; conditions: in vivo, 1320 h
Leishmania braziliensis [17] = test: […] activity against Leishmania braziliensis MHOM/BR/2000/CP13396 infected Rhesus monkey assessed as relapse in parasite-induced skin lesions at 5 mg/kg, intramuscular daily for 21 days administered 9 weeks post infection; assay type: functional, organism-based; parameters: dose 5 mg/kg
Leishmania braziliensis [18] = test: […] activity against Leishmania braziliensis MHOM/BR/2000/CP13396 infected Rhesus monkey assessed as total decrease in parasite-induced skin lesions at 20 mg/kg, intramuscular daily for 21 days administered 9 weeks post infection; assay type: functional, organism-based; parameters: dose 20 mg/kg

Sequence: MEGLUMINE ANTIMONATE [listing 1 of 2 here]
- Drug uptake [1]: 1433 ng/g
- Activity (Rhesus monkey [2]): Toxic
- Drug uptake [3]: 2220 ng/g
- Drug uptake [4]: 500 ng/g
- Drug uptake [5]: 669.3 ng/g
- Drug uptake [6]: 313 ng/g
- Drug uptake [7]: 1593 ng/g
- Activity (Rhesus monkey [8]): Non-toxic
- Drug uptake [9]: 1800 ng/g
- Activity (Rhesus monkey [10]): Non-toxic
- Drug uptake [11]: 476.7 ng/g
- Drug uptake [12]: 152 ng/g
- Drug uptake [13]: 4800 ng/g
- Drug uptake [14]: 698.3 ng/g
- Activity (Rhesus monkey [15]): Toxic
- Drug uptake [16]: 2913 ng/g

Sequence: MEGLUMINE ANTIMONATE [listing 2 of 2 here]
- Activity (Leishmania braziliensis [17]): 50%
- inhibition (Leishmania braziliensis [18]): Active
